Several values for one entry are separate records, joined by “and”; a condition that tells them apart may be missing. Identical values can stand only once.
What was measured:
[1] = One-electron reduction potentials by pulse radiolysis; format: physicochemical; details: pH 7.0, equilibrium with redox indicator shown in square brackets
Outline: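 Redox equilibria at pH 7.0 (2.5 mM phosphate) established within 50 μs between one-electron reduced compound and viologen references MV^2+, TQ^2+ or V21^2+, generated by 4 MeV linac pulse radiolysis with time-resolved optical absorption. E^0′ vs NHE derived via Nernst equation from equilibrium constants, corrected for ionic strength.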

SiHa cells [2] = experiment: IC50 assay (inhibition of proliferation, 4 h exposure, SRB); details: SiHa; for IC50: Homo sapiens, 4 h
Outline: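 Cells exposed to compound for 4 h in titrated medium, then washed and regrown 5 days under standard conditions (oxia, pHe 7.4). Growth read by sulforhodamine B staining; IC50 from 4-parameter logistic regression of duplicate cultures.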

SiHa cells [3] = experiment: IC50 assay modified for chronic hypoxia (oxia, hypoxia, anoxia); format: cell-based; details: for IC50: Homo sapiens
Protocol: There are relatively few viable cells in tumors at O2 concentrations as low as in the above anoxic experiments. In addition, extensive changes in gene expression occur under chronic exposure to intermediate O2 concentrations (chronic hypoxia), including the expression of proteins that regulate pHi. […] Therefore, oxic and anoxic exposures were also tested in these same experiments. The 24 h adaptation to hypoxia had little effect on the subsequent growth of the cultures at either pHe value (Figure S6).
To minimize problems with poor cell attachment under chronic hypoxia, the drugs were added from a 3-fold dilution series made in a separate plate, rather than by serial dilution in the plates containing the cells. In addition, the drugs were removed after the 4 h exposure by centrifuging the plates (200g × 5 min) prior to each aspiration. The same modifications were used for the oxic drug exposures in these experiments.

SiHa cells [4] = experiment: Metabolism and uptake of ester 4b in anoxic single cell suspensions; format: in vitro ADME; details: anoxic SiHa suspensions after addition of 4b (150 μM), at 30 min
From the text: If the anionic sidechain of the BTO acids results in low intracellular concentrations, with reductive metabolism occurring largely at the cell surface, the corresponding esters would be expected to provide improved delivery to the intracellular compartment (consistent with their higher cytotoxic potencies, as noted in Section 2.5). To test this, we compared the metabolism of ester 4b (Figure 7A) with its corresponding acid 4a (Figure 7B) by monitoring extracellular concentrations in anoxic SiHa suspensions. The rates of metabolism of both compounds were unaffected by pHe, consistent with the results for 4a in Figure 5B. The ester was metabolized more rapidly than the acid, with only a trace of acid 4a detected transiently as an extracellular metabolite (Figure 7A). The major metabolites were the less polar 1-oxide, 15a, and the 1-oxide of the ester, 16a. In separate experiments with higher initial concentrations of 4b, 15a was again the main extracellular metabolite (Figure 7C, left). […] Compound 4b itself was not detected in the intracellular samples, presumably reflecting a lack of retention in cells and the very low intracellular volume, which will compromise analytical sensitivity (only 2 × 10^6 cells were collected for each analysis in this experiment).
Figure 7 Metabolism of BTO ester 4b and the corresponding acid 4a by anoxic SiHa single cell suspensions (2 × 10^6 cells/mL). (A) Extracellular concentrations following the addition of 4b (50 μM). (B) Extracellular concentrations following the addition of 4a (50 μM). (C) Extracellular (left) and intracellular (right) concentrations following the addition of 4b (150 μM). Values are means and errors are SEM for 3 replicate cultures.

[5] = Solubility in AlphaMEM + 5% FBS, pH 7.4; details: culture medium (AlphaMEM + 5% FBS), pH 7.4, plasma or biological fluid, kinetic from dmso stock
[6] = test system: MDCK-II cells with forced expression of BCRP or Pgp; experiment: IC50 under anoxia in cells with forced expression of efflux transporters; details: MDCK-II cell lines under anoxia, preliminary experiments
Protocol: expression of BCRP or Pgp.
Cells were seeded at 300 cells/well in DMEM with 10% FBS in 96 well plates in an
anaerobic chamber, allowed to attach for 2 h then exposed to drugs for 4 h under anoxia. Cells were
then washed with fresh medium and grown for 5 days under aerobic conditions before staining with
SRB. Values are mean ± SEM from 2 separate experiments.

SiHa cells [7] = experiment: Cellular uptake in stirred aerobic single cell suspensions (HPLC, 3H-mannitol correction)
Protocol: In these experiments, cell pellets were collected by centrifugation and ^3H-mannitol was used as a cell-excluded marker to enable correction for the entrapped extracellular medium.
Log-phase cultures were dissociated with trypsin/EDTA, followed by the addition of the medium with DNAase I (Sigma DN-25) at 100 μg/mL for 5 min at 37 °C to minimize clumping. The cell pellets were collected by centrifugation and resuspended in αMEM with 5% FBS at pH 7.4 or 6.5 to 2 × 10^6 cells/mL. Samples (12 mL) were equilibrated with magnetic stirring at 37 °C under flowing humidified 5% CO2/air or N2 (50–100 mL/min), as previously described [86]. After equilibration for 60 min, the compounds were added in 50 μL of DMSO. The samples (5 mL) were withdrawn 5 and 60 min later, where the cell pellets were then collected by centrifugation and 4 mL of the supernatant was discarded. The pellets were resuspended in the remaining 1 mL, transferred to microcentrifuge tubes containing 7 μL ^3H-mannitol (740 GBq/mmol, American Radiolabeled Chemicals Inc., St. Louis, MO) as an extracellular marker, and then centrifuged (11,000g × 30s). The supernatant was removed and frozen at −80 °C (extracellular samples) and the tubes were centrifuged again, and any remaining medium was carefully removed. Ice-cold MeOH (80 μL) was added to the pellets which were disrupted by pipetting and stored at −80 °C (intracellular samples). When these were thawed for HPLC analysis (Section 4.12), the volume of extracellular water trapped in the pellets was determined by the scintillation counting (PerkinElmer Tri-Carb B2910TR Liquid Scintillation) of 25 μL of each extracellular and intracellular sample in 3 mL of Emulsifier-Safe™ scintillation cocktail (PerkinElmer). The extracellular volume in each intracellular sample was used to correct the intracellular drug concentration as previously described [87].
The samples were analyzed using an Agilent 1200 HPLC with a diode array absorbance detector and autosampler maintained at 4 °C (Agilent Technologies). The frozen samples were thawed, then centrifuged (11,000g × 5 min), and then extracellular samples were injected directly (typically 20 μL), while for the intracellular samples 30 μL was mixed 1:1 with αMEM and 50 μL was injected. […] All calibration curves were linear (R^2 > 0.999). The column was an Agilent ZORBAX Eclipse (XDB-C18, 5u, 2.1 × 150 mm, Agilent Technologies) with a flow rate of 0.4 mL/min. For SN30000 (2), the mobile phase was a mixture of 80% MeCN/water v/v (A), and a 45 mM formate buffer at a pH 4.5, eluting with a linear gradient of 5–100% A over 18 min. The same method was used for the BTO acids, except for 4a, where the aqueous mobile phase pH was reduced to 3.5.
Values are mean and SEM for 3 replicates. ND: Not detected.

E^0′ one-electron reduction potential [1]: −399 mV and −399 ± 7 [MV^2+] mV | PCR (IC50 for pHe 7.4/IC50 for pHe 6.5) (SiHa cells [3]; 0.2% O2): 1.39 ± 0.19 | PCR (IC50 for pHe 7.4/IC50 for pHe 6.5) (SiHa cells [3]; 20% O2): 1.98 ± 0.93 | PCR (IC50 for pHe 7.4/IC50 for pHe 6.5) (SiHa cells [3]; <0.01% O2): 1.86 ± 0.59 | IC50 (SiHa cells [3]; 0.2% O2 (24 h before and during 4 h exposure), pHe 6.5): 308 ± 1 µM | IC50 (SiHa cells [3]; 0.2% O2 (24 h before and during 4 h exposure), pHe 7.4): 428 ± 57 µM | IC50 (SiHa cells [3]; 4 h, 20% O2, pHe 6.5, 4 h): 707 ± 321 µM | IC50 (SiHa cells [3]; 4 h, 20% O2, pHe 7.4, 4 h): 1400 ± 162 µM | IC50 (SiHa cells [3]; 4 h, <0.01% O2, pHe 6.5, 4 h): 160 ± 45 µM | IC50 (SiHa cells [3]; 4 h, <0.01% O2, pHe 7.4, 4 h): 298 ± 44 µM | ACR (IC50 for 20% O2/IC50 for <0.01% O2) (SiHa cells [3]; pHe 6.5): 4.42 ± 2.36 | HCR (IC50 for 20% O2/IC50 for 0.2% O2) (SiHa cells [3]; pHe 6.5): 2.30 ± 1.04 | ACR (IC50 for 20% O2/IC50 for <0.01% O2) (SiHa cells [3]; pHe 7.4): 4.70 ± 0.88 | HCR (IC50 for 20% O2/IC50 for 0.2% O2) (SiHa cells [3]; pHe 7.4): 3.28 ± 0.58 | Maximum intracellular concentration (SiHa cells [4]): 4.1 mM | solubility [5]: 17.1 mM | Uptake (Ci/Ce) at 4 °C relative to 37 °C (SiHa cells [7]; SiHa cell suspensions, data not shown): undetectable | Ci/Ce, pHe 6.5 Obs 5 min (SiHa cells [7]; aerobic SiHa suspensions, pHe 6.5, 5 min): <0.1 | Ci/Ce, pHe 6.5 Obs 60 min (SiHa cells [7]; aerobic SiHa suspensions, pHe 6.5, 60 min): <0.1 | Ci/Ce, pHe 7.4 Obs 5 min (SiHa cells [7]; aerobic SiHa suspensions, pHe 7.4, 5 min): <0.1 | Ci/Ce, pHe 7.4 Obs 60 min (SiHa cells [7]; aerobic SiHa suspensions, pHe 7.4, 60 min): <0.1
Structure (SMILES): O=C(O)CCc1n[n+]([O-])c2ccccc2[n+]1[O-] [Compound 4a, 3-(2-Carboxyethyl)benzo[e][1,2,4]triazine 1,4-Dioxide]
IC50 (SiHa cells [2]; read-out: Anoxic IC50, SiHa, pHe 6.5, 4 h, anoxic): 97 ± 4 µM | IC50 (SiHa cells [2]; read-out: Anoxic IC50, SiHa, pHe 7.4, 4 h, anoxic): 259 ± 26 µM | IC50 (SiHa cells [2]; read-out: Oxic IC50, SiHa, pHe 6.5, 4 h, oxic): 798 ± 43 µM | IC50 (SiHa cells [2]; read-out: Oxic IC50, SiHa, pHe 7.4, 4 h, oxic): 1950 ± 170 µM | TMR (overall TME ratio = oxic IC50 pHe 7.4/anoxic IC50 pHe 6.5) (SiHa cells [2]): 20.2 ± 2.0 | PCR Anoxic (IC50 at pHe 7.4/IC50 at pHe 6.5) (SiHa cells [2]; anoxic): 2.68 ± 0.29 | PCR oxic (IC50 at pHe 7.4/IC50 at pHe 6.5) (SiHa cells [2]; oxic): 2.45 ± 0.25 | ACR (anoxic cytotoxicity ratio = oxic IC50/anoxic IC50) (SiHa cells [2]; pHe 6.5): 8.26 ± 0.58 | IC50 fold higher than for SN30000 (SiHa cells [2]; pHe 6.5 under anoxia, representative experiment): approximately 50 fold | ACR (anoxic cytotoxicity ratio = oxic IC50/anoxic IC50) (SiHa cells [2]; pHe 7.4): 7.54 ± 1.00 | PCR (pH cytotoxicity ratio) (SiHa cells [2]; representative experiment (Figure 3), oxia and anoxia): ~ 2.5 | ACR (anoxia cytotoxicity ratio) (SiHa cells [2]; representative experiment (Figure 3), pHe 7.4 and 6.5): ~ 8 | Effect of overexpression of BCRP or Pgp efflux transporters on sensitivity [6]: no effect

Source: PMC6680510, “Benzotriazine Di-Oxide Prodrugs for Exploiting Hypoxia and Low Extracellular pH in Tumors” (Molecules, 2019)
